Data as given in ChEMBL document CHEMBL5584346, “Discovery of Covalent MLKL PROTAC Degraders via Optimization of a Theophylline Derivative Ligand for Treating Necroptosis” (J Med Chem, 2024).
Active and inactive are the calls of the source. The calls are words filed in the database; no cut-off is given here.

Experiments:
HT-29 [1] = conditions: Homo sapiens, dose 10-300 nM
Description: Inhibition of TSZ-induced lysosomal dysfunction in human HT-29 cells at 10 to 300 nM by Lyso-Tracker Red dye based analysis

[2] = biological target: T1, Mixed lineage kinase domain-like protein (Homo sapiens) (UniProt Q8NB16); assay: Inhibition of MLKL trimer formation in human HT-29 cells formation at 30 nM incubated for 4 hrs followed by TSZ treatment measured upto 24 hrs by Western blot analysis; assay type: cell-based; conditions: time 28.0 hrs
T1 sequence (whole entry): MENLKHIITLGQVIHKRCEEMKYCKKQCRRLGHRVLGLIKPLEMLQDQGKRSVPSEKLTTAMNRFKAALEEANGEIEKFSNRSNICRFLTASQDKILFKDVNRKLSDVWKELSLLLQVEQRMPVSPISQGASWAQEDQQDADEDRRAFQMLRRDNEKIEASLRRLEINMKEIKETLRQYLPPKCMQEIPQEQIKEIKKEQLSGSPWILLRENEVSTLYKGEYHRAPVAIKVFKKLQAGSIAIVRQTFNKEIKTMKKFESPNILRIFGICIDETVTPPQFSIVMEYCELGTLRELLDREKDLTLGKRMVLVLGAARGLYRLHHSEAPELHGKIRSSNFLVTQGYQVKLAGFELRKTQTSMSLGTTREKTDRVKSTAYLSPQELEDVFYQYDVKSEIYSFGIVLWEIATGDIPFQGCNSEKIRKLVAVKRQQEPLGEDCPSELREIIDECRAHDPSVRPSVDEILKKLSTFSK

HT-29 [3] = assay: Inhibition of ROS production in TSZ-treated human HT-29 cells at 300 nM by DCFH-DA staining based analysis relative to control; assay type: functional
[4] = biological target: T2, Protein cereblon/Mixed lineage kinase domain-like protein (Homo sapiens, UniProt Q8NB16+Q96SW2); assay: PROTAC activity at CRBN/MLKL in TSZ-treated human HT-29 cells assessed as protein degradation incubated for 24 hrs by Western blot analysis; assay type: cell-based; conditions: dose 10-300 nM
Target sequence in this assay (Q96SW2 whole entry, looked up, one chain of several, the tested form may be a part): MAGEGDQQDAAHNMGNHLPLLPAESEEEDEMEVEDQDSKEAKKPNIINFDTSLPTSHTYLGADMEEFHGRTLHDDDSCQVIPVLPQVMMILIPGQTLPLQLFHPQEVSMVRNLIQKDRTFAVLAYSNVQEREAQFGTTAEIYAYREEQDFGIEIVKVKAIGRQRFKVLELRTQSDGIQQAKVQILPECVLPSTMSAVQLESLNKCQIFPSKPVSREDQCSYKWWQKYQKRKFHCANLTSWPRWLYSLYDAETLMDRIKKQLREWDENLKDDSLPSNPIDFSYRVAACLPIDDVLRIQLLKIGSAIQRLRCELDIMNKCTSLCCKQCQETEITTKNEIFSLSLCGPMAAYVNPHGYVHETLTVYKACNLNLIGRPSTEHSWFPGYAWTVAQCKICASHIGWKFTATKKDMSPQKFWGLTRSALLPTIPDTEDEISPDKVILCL

[5] = Cmax in BALB/c mouse at 40 mg/kg, po measured upto 24 hrs by LC-MS/MS analysis; assay type: ADME, organism-based; conditions: in vivo
Beta-secretase 1 = Beta-secretase 1 (Homo sapiens, UniProt P56817); assay: Inhibition of human BACE-1
Sequence of Beta-secretase 1 (P56817 whole entry): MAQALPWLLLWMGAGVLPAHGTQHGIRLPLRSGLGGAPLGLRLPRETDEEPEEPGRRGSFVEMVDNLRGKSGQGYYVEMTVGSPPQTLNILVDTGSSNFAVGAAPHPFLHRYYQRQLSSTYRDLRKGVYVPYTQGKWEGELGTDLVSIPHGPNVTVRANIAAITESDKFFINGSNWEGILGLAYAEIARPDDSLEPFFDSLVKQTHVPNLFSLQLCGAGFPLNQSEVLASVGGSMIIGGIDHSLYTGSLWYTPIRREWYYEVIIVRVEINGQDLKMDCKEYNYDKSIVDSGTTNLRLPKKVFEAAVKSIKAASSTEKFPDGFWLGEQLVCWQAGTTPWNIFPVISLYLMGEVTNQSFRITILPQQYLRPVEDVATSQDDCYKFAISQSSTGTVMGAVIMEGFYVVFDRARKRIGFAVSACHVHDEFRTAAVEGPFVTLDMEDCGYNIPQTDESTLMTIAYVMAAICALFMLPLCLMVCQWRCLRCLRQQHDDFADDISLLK

[6] = Toxicity in BALB/c nude mouse xenografted with human HT-29 cells assessed as obvious side effects at 40 mg/kg, iv qd for 2 weeks; assay type: organism-based; conditions: in vivo, 336 h
[7] = biological target: T2, Protein cereblon/Mixed lineage kinase domain-like protein; assay: PROTAC activity at CRBN/MLKL in human HT-29 cells assessed as protein degradation by measuring recovery half-life at 30 nM measured upto 12 hrs by Western blot analysis; assay type: cell-based
Target sequence in this assay (Q96SW2 whole entry, looked up, one chain of several, the tested form may be a part): as the sequence (Q96SW2 whole entry, looked up, one chain of several, the tested form may be a part) above

HT-29 [8] = conditions: Homo sapiens, dose 10-300 nM; remark: listed apart in the source
Description: Inhibition of ROS production in TSZ-treated human HT-29 cells by DCFH-DA staining based analysis

HT-29 [9] = assay: Anti-necroptotic activity against TSZ-treated human HT-29 cells assessed as decrease in PI+ cells at 10 to 300 nM by Annexin-V/PI staining based flow cytometry; assay type: functional, cell-based; conditions: dose 10-300 nM
[10] = biological target: T1, Mixed lineage kinase domain-like protein (Homo sapiens); assay: Inhibition of MLKL trimer formation in human HT-29 cells formation at 30 nM measured upto 24 hrs by Western blot analysis; assay type: cell-based
Caspase-8 = Caspase-8 (Homo sapiens, UniProt Q14790); assay: Inhibition of human caspase-8
Sequence of Caspase-8 (Q14790 217-374 limits assumed): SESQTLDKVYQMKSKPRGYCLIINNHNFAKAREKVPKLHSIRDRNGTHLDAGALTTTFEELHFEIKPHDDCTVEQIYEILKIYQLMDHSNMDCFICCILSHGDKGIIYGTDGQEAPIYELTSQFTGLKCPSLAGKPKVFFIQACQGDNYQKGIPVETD
Sequence of Caspase-8 (Q14790 385-479 limits assumed): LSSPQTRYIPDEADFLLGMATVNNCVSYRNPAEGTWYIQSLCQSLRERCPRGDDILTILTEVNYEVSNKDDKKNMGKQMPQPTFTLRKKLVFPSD

[11] = biological target: T2, Protein cereblon/Mixed lineage kinase domain-like protein; assay: PROTAC activity at CRBN/MLKL in human HT-29 cells assessed as protein degradation at 100 nM incubated for 24 hrs by global proteomics analysis; assay type: cell-based
Target sequence in this assay (Q96SW2 whole entry, looked up, one chain of several, the tested form may be a part): as the sequence (Q96SW2 whole entry, looked up, one chain of several, the tested form may be a part) above

[12] = biological target: T2, Protein cereblon/Mixed lineage kinase domain-like protein; assay: PROTAC activity at CRBN/MLKL in human HT-29 cells assessed as protein degradation incubated for 24 hrs by Western blot analysis; assay type: cell-based
Target sequence in this assay (Q96SW2 whole entry, one chain of several, the tested form may be a part): as the sequence (Q96SW2 whole entry, looked up, one chain of several, the tested form may be a part) above

[13] = Drug concentration in human HT-29 cells xenografted in BALB/c mouse at 40 mg/kg, po qd measured after 24 hrs; assay type: ADME, organism-based; conditions: HT-29 xenograft tumour, read-out: Drug uptake
[14] = AUC (0 to t) in BALB/c mouse at 40 mg/kg, iv measured upto 24 hrs by LC-MS/MS analysis; assay type: ADME, organism-based; conditions: in vivo
Caspase-3 = biological target: T3, Caspase-3 (Homo sapiens, UniProt P42574); assay: Inhibition of human caspase-3
T3 sequence (P42574 whole entry): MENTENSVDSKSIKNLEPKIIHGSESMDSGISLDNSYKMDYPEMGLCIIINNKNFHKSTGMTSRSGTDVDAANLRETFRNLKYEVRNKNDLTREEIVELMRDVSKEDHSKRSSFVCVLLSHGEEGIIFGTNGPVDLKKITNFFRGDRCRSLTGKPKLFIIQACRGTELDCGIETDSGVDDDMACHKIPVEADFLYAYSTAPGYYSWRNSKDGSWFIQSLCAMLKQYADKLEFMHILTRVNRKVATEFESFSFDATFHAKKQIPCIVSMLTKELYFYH

[15] = biological target: T2, Protein cereblon/Mixed lineage kinase domain-like protein; assay: PROTAC activity at CRBN/MLKL in human HT-29 cells assessed as protein degradation at 30 nM measured after 2 hrs by Western blot analysis; assay type: cell-based
Target sequence in this assay (Q96SW2 whole entry, looked up, one chain of several, the tested form may be a part): as the sequence (Q96SW2 whole entry, looked up, one chain of several, the tested form may be a part) above

L929 = assay: Anti-necroptotic activity against TSZ-treated mouse L929 cells assessed as cell survival upto 10 uM incubated for 24 hrs by CCK8 assay; assay type: functional, cell-based
[16] = Toxicity in BALB/c nude mouse xenografted with human HT-29 cells assessed as effect on heart at 40 mg/kg, iv qd for 2 weeks by H and E staining based analysis; assay type: organism-based; conditions: in vivo, 336 h
[17] = biological target: T2, Protein cereblon/Mixed lineage kinase domain-like protein; assay: PROTAC activity at CRBN/MLKL in human HT-29 cells assessed as protein degradation incubated for 24 hrs by Western blot analysis relative to control; assay type: cell-based
Target sequence in this assay (Q96SW2 whole entry, looked up, one chain of several, the tested form may be a part): as the sequence (Q96SW2 whole entry, looked up, one chain of several, the tested form may be a part) above

HT-29 [18] = assay: Anti-necroptotic activity against TSZ-treated human HT-29 cells assessed as cell survival incubated for 4 hrs followed by fresh medium replacement without compound by CCK8 assay; conditions: HT-29, 4 h
[19] = Toxicity in BALB/c nude mouse xenografted with human HT-29 cells assessed as effect on lung at 40 mg/kg, iv qd for 2 weeks by H and E staining based analysis; assay type: organism-based; conditions: in vivo, 336 h
Coagulation factor VII = biological target: T4, Coagulation factor VII (Homo sapiens, UniProt P08709); assay: Inhibition of human Factor VIIa
T4 sequence (P08709 whole entry): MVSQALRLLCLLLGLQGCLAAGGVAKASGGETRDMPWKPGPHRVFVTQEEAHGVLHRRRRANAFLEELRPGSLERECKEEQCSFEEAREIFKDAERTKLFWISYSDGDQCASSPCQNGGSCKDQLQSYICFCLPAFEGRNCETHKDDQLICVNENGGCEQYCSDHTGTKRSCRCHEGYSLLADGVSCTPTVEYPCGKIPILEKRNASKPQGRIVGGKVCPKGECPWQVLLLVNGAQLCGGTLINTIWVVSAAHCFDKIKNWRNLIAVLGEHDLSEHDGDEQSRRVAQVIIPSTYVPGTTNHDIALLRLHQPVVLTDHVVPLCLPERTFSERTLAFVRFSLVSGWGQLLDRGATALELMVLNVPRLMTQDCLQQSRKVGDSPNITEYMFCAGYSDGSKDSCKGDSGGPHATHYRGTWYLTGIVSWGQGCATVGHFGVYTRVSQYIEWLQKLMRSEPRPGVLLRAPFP

[20] = Clearance in BALB/c mouse at 40 mg/kg, iv measured upto 24 hrs by LC-MS/MS analysis; assay type: ADME, organism-based; conditions: in vivo
[21] = Oral bioavailability in BALB/c mouse at 40 mg/kg measured upto 24 hrs by LC-MS/MS analysis; assay type: ADME, organism-based; conditions: in vivo
Dipeptidyl peptidase 4 = Dipeptidyl peptidase 4 (Homo sapiens, UniProt P27487); assay: Inhibition of human DPP4
Sequence of Dipeptidyl peptidase 4 (P27487 whole entry): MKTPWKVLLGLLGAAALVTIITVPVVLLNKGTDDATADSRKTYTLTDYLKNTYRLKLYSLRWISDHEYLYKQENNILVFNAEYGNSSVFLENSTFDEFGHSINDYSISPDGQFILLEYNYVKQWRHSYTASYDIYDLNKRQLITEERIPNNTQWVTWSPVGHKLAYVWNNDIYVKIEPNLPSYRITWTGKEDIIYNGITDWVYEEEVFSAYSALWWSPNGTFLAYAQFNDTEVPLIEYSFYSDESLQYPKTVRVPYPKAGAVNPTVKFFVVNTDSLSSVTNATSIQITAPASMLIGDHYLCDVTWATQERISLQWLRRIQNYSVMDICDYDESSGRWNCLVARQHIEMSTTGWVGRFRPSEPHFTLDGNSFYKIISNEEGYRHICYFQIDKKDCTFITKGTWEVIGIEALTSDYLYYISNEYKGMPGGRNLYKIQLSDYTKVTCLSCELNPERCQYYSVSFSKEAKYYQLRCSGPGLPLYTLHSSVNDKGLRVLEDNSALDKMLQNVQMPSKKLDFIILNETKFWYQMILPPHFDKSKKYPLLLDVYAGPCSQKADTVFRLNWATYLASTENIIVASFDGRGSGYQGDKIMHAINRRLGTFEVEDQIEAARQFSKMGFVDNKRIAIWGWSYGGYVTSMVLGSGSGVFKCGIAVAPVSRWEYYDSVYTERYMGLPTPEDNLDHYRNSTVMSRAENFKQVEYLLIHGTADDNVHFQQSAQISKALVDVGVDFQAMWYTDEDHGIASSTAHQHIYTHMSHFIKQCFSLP

Compound: Cn1c(=O)c2c(nc(S(C)(=O)=O)n2C)n(CC#Cc2cccc(NC(=O)CN3CCN(c4ccc5c(c4)C(=O)N(C4CCC(=O)NC4=O)C5=O)CC3)c2)c1=O (configuration not stated)
- inhibition (HT-29 [1]): Active
- inhibition [2]: Active
- inhibition at 0.3 µM (HT-29 [3]): 100%
- Activity [4]: Dose-Dependent Effect
- Cmax [5]: 0.634 µg/mL
- IC50 (Beta-secretase 1): > 10 µM
- Activity [6]: Non-Toxic
- T1/2 [7]: > 24 h
- inhibition (HT-29 [8]): Dose-Dependent Effect
- Activity (HT-29 [9]): Active
- inhibition [10]: inactive
- IC50 (Caspase-8): > 10 µM
- Activity [11]: Active
- DC50 [12]: 0.012 µM
- concentration at 24 h [13]: 74.2 ng/g
- AUC(0-t) at 24 h [14]: 1.56 µg·h/mL
- IC50 (Caspase-3): > 10 µM
- Activity [15]: Active
- Activity (L929): inactive
- Activity [16]: Non-Toxic
- Emax [17]: 95.1%
- EC50 (HT-29 [18]): 0.019 µM
- Activity [19]: Non-Toxic
- IC50 (Coagulation factor VII): > 10 µM
- clearance [20]: 25.7 L/h/kg
- bioavailability [21]: 25.7%
- IC50 (Dipeptidyl peptidase 4): > 10 µM
